Results on 14 compounds are retold here after patent US4603130A, “1-substituted-2-(piperazinyl or homopiperazinyl)-benzimidazole compounds and pharmaceutical composition” (Kanebo, Ltd., priority 1983, dated 1986).

One data set can be described thus: in vivo. The following applies: mouse, in vivo, po; mice, p.o., deaths within one week; Weil's method; Example 9 as free base, others as fumarate; read-out: Acute Toxicity LD50. From the text: (§1) 2. Acute toxicity (LD50):
(§2) The same compounds as used in the above protecting activity against histamine were used.

Data set [1] has as its system histamine-induced lethality. Briefly: Protecting activity against histamine-induced lethality (similar to Labelle-Tislow method), oral. Particulars: Cavia porcellus, 2 h, guinea pig, p.o. 1 h before histamine 1.1 mg/kg i.v., survival after two hours, Probit method, Example 9 as free base, others as fumarate. It counts as in vivo, Hartley strain male and female guinea pigs. Here is the method:
1. Protecting activity against histamine-induced lethality:
(3) Homochlorcyclizine hydrochloride (reference compound)
The test was carried out by a method similar to Labelle-Tislow method [cf. J. Pharmacol. Exp. Ther., 113, 72, 1955]. […] After one hour, histamine (1.1 mg/kg, in a physiological saline solution) was injected to the animals in cephalic vein. After two hours, the number of live guinea pigs was counted, and therefrom ED50 of the compounds was calculated according to Probit method.

A further data set relates to mice. Briefly: in vivo. The following applies: p.o., deaths within one week, Weil's method, Example 9 as free base, others as fumarate, 10080 min.
Description: as §1, §2

For data set [2], the system named is hexobarbital-induced sleep. The data set can be described thus: Potentiating effect on hexobarbital-induced sleep in mice. Type of data set: in vivo. Particulars: 25 mg/kg (p.o.). From the text: Besides, the conventional antihistaminics have side-effect such as hypnotic activity.
For data set [3] the following is noted: among compounds of U.S. Pat. No. 3,423,413; cited from earlier work.

Where a name gives a salt, the structure may show the parent alone.

Consider `CCOCCn1c(CN2CCCNCC2)nc2ccccc21` [Example 2, 1-(2-ethoxyethyl)-2-(1-homopiperazinyl)methylbenzimidazole], for which the LD50 (in general, the dose expected to kill half of the subjects tested) at 168 h in “in vivo” worked out at 1540 mg/kg. Also, the ED50 (as a rule, the dose that gives a 50% effect, or the effect in half of the subjects) in data set [1] was 0.014 mg/kg.

In the case of `CCOCCn1c(CN2CCN(CCO)CC2)nc2ccccc21` [Example 7, 1-(2-ethoxyethyl)-2-[4-(2-hydroxyethyl)-1-piperazinyl]methylbenzimidazole], in “in vivo”, the median lethal dose (LD50) at 168 h was over 2000 mg/kg. In addition, the 50% effect level in data set [1] (ED50) was put at a dose of 0.004 mg/kg.

As for `CCOCCn1c(CN2CCN(CC)CC2)nc2ccccc21` [Example 5, 1-(2-ethoxyethyl)-2-(4-ethyl-1-piperazinyl)methylbenzimidazole], the LD50 at 168 h in the data set “in vivo” was 904 mg/kg. This compound came in with an ED50 in data set [1] of 0.0067 mg/kg.

Consider `C#CCOCCn1c(CN2CCN(C)CC2)nc2ccccc21` [Example 11, 1-(2-propargyloxyethyl)-2-(4-methyl-1-piperazinyl)methylbenzimidazole], for which the LD50 at 168 h in “in vivo” is 891 mg/kg. In addition, it took a dose of 0.0023 mg/kg to reach the 50% effect level in data set [1] (ED50).

For `C=COCCn1c(CN2CCN(C)CC2)nc2ccccc21` [Example 9, 1-(2-vinyloxyethyl)-2-(4-methyl-1-piperazinyl)methylbenzimidazole], the LD50 at 168 h in “in vivo” was found to be 698 mg/kg. The compound also came in with an ED50 in data set [1] of 0.0071 mg/kg.

On to `CCOCCn1c(CN2CCCN(C)CC2)nc2ccccc21` [Example 4, 1-(2-ethoxyethyl)-2-(4-methyl-1-homopiperazinyl)methylbenzimidazole], for which the LD50 at 168 h in “in vivo” is 990 mg/kg. In addition, it took a dose of 0.0092 mg/kg to reach the 50% effect level in data set [1] (ED50).

In the case of `CN1CCCN(C(c2ccccc2)c2ccc(Cl)cc2)CC1` (stereo not drawn) [Homochlorcyclizine hydrochloride, reference compound], the “Acute Toxicity LD50” value with mice amounted to 382 mg/kg. In data set [1], the ED50 is 0.26 mg/kg. In data set [2], the “potentiating effect on hexobarbital-induced sleep” value was “showed remarkable potentiating effect”.

Consider `CCCN1CCN(Cc2nc3ccccc3n2CCOCC)CC1` [Example 6, 1-(2-ethoxyethyl)-2-(4-n-propyl-1-piperazinyl)methylbenzimidazole], for which the LD50 at 168 h in “in vivo” was determined as 303 mg/kg. This compound also showed an ED50 in data set [1] of 0.0095 mg/kg.

Consider `C#CCOCCn1c(CN2CCCN(C)CC2)nc2ccccc21` [Example 12, 1-(2-propargyloxyethyl)-2-(4-methyl-1-homopiperazinyl)methylbenzimidazole], for which the 50% lethal dose (LD50) at 168 h in “in vivo” was 524 mg/kg. Also, the ED50 in data set [1] amounted to 0.017 mg/kg.

With `OCCN1CCN(Cc2nc3ccccc3n2Cc2ccc(F)cc2)CC1` [Compound A, 1-(4-fluorobenzyl)-2-[4-(2-hydroxyethyl)-1-piperazinyl]methylbenzimidazole, reference compound], the LD50 at 168 h in “in vivo” was found to be 440 mg/kg. Besides, the ED50 in data set [1] came to 0.026 mg/kg. Further, the anti-allergic activity entry in data set [3] is reported as “most potent anti-allergic activity”.

In the case of `CCCOCCn1c(CN2CCN(C)CC2)nc2ccccc21` [Example 8, 1-(2-n-propoxyethyl)-2-(4-methyl-1-piperazinyl)methylbenzimidazole], the LD50 at 168 h in “in vivo” amounted to 1010 mg/kg. The compound also had an ED50 in data set [1] of 0.0059 mg/kg.

For `CCOCCn1c(CN2CCN(C)CC2)nc2ccccc21` [Example 3, 1-(2-ethoxyethyl)-2-(4-methyl-1-piperazinyl)methylbenzimidazole], in “in vivo”, the LD50 at 168 h is 789 mg/kg. In addition, in data set [1], the 50% effect level (ED50) was put at a dose of 0.0026 mg/kg.

Turning to `C=CCOCCn1c(CN2CCN(C)CC2)nc2ccccc21` [Example 10, 1-(2-allyloxyethyl)-2-(4-methyl-1-piperazinyl)methylbenzimidazole], the LD50 at 168 h in the data set “in vivo” was 657 mg/kg. This compound also yielded an ED50 in data set [1] of 0.0059 mg/kg.

For the compound `CCOCCn1c(CN2CCNCC2)nc2ccccc21` [Example 1, 1-(2-ethoxyethyl)-2-(1-piperazinyl)methylbenzimidazole], the LD50 at 168 h in “in vivo” was over 2000 mg/kg. In addition, the ED50 in data set [1] is 0.0033 mg/kg.
